Test [1] addresses Human immunodeficiency virus type 1 protease (Human immunodeficiency virus 1, UniProt Q72874). The experiment in a line: Inhibition constant for HIV aspartyl protease.
Test [2] concerns Human immunodeficiency virus. The test is described as follows: Effective concentration against wild type HIV virus was determined in anti-viral assay. The following applies: Human immunodeficiency virus 1. The test is classed as functional, organism-based.
The test system of test [3] is Human immunodeficiency virus. The experiment in a line: Effective concentration against wild type virus HIV virus was determined in anti-viral assay. The test is classed as functional, organism-based. The following applies: Human immunodeficiency virus 1.

`Cc1ccc(S(=O)(=O)N(CC(C)C)[C@@H](CCCCNC(=O)N(Cc2ccccc2)Cc2ccccc2)C(=O)O)cc1` returned a Ki in test [1] of 7.2 nM.

`COc1ccc(CN(Cc2ccc3c(c2)OCO3)C(=O)NCCCC[C@@H](CO)N(CC(C)C)S(=O)(=O)c2ccc(N)cc2)cc1`: in test [1], the Ki is 2.2 nM. For the same molecule, the midpoint of the response in test [2], the EC50, lay at 500 nM.

In test [1], `CC(C)CN([C@H](CO)CCCCNC(=O)N(Cc1ccccc1)Cc1cccc2c1OCO2)S(=O)(=O)c1ccc(N)cc1` had a Ki of 5.4 nM. Moreover, the EC50 in test [2] is > 10000 nM.

In test [1], `CC(C)CCN([C@H](CO)CCCCNC(=O)N(Cc1ccccc1)Cc1ccccc1)S(=O)(=O)c1ccc(N)cc1` showed a Ki of 5.8 nM. Besides, the EC50 in test [3] is > 10000 nM.

In test [1], `COc1ccc(CN(Cc2ccc3c(c2)OCO3)C(=O)NCCCC[C@@H](CO)N(CCC(C)C)S(=O)(=O)c2ccc(N)cc2)cc1` gave a Ki of 2.9 nM. The EC50 in test [3] stood at 700 nM.

Consider `CC(C)CCN([C@H](CO)CCCCNC(=S)N(Cc1ccc(F)cc1)Cc1ccc2c(c1)OCCO2)S(=O)(=O)c1ccc(N)cc1`, for which the Ki in test [1] came to 9.9 nM.

Turning to `Cc1ccc(S(=O)(=O)N(CC(C)C)[C@@H](CCCCNC(=O)N(Cc2ccccc2)Cc2ccncc2)C(=O)O)cc1`, in test [1], the Ki stood at 3.7 nM.

For the molecule `CC(C)CN([C@H](CO)CCCCNC(=O)N(Cc1ccc2c(c1)OCO2)Cc1ccc2c(c1)OCO2)S(=O)(=O)c1ccc(N)cc1`, the Ki in test [1] was 1.7 nM. In test [2], this molecule returned a concentration giving a half-maximal response (EC50) of 150 nM.

Consider `Cc1ccc(S(=O)(=O)N(CC(C)C)[C@@H](CCCCNC(=O)N(CCc2ccccc2)Cc2ccccc2)C(=O)O)cc1`, for which the Ki in test [1] is > 300 nM.

Molecule `CC(C)CCN([C@H](CO)CCCCNC(=O)N(Cc1ccc(C(F)(F)F)cc1)Cc1ccc2c(c1)OCO2)S(=O)(=O)c1ccc(N)cc1` yielded a Ki in test [1] of 3 nM. Also, the EC50 in test [3] is > 10000 nM.

Regarding `CC(C)CN([C@H](CO)CCCCNC(=O)N(Cc1ccc2c(c1)OCO2)Cc1cccs1)S(=O)(=O)c1ccc(N)cc1`, in test [1], the Ki worked out at 2 nM. The EC50 in test [2] is 4000 nM.

With `CC(C)CN([C@H](CO)CCCCNC(=O)N(Cc1ccccc1)Cc1ccccc1)S(=O)(=O)c1ccc(N)cc1`, the affinity in test [1], expressed as Ki, was 12 nM. The same molecule came in with an EC50 in test [2] of 3000 nM.

On to `Cc1ccc(S(=O)(=O)N(CC(C)C)[C@@H](CCCCNC(=O)NCc2ccccn2)C(=O)O)cc1`, for which the Ki in test [1] was > 300 nM.

For `CC(C)CCN([C@H](CO)CCCCNC(=O)N(Cc1ccc([N+](=O)[O-])cc1)Cc1ccc2c(c1)OCO2)S(=O)(=O)c1ccc(N)cc1`, the Ki in test [1] was determined as 2.2 nM. The molecule further displayed an EC50 in test [3] of 845 nM.

For the molecule `Cc1ccc(S(=O)(=O)N(CC(C)C)[C@H](CO)CCCCNC(=O)N(Cc2ccccc2)Cc2ccccc2)cc1`, the affinity in test [1], expressed as Ki, was 15 nM.

`Cc1ccc(S(=O)(=O)N(CC(C)C)[C@@H](CCCCNC(=O)NCCc2ccccc2)C(=O)O)cc1` yielded a Ki in test [1] of 204 nM.

As for `CC(C)CN([C@H](CO)CCCCNC(=O)N(Cc1ccccc1)Cc1ccc2c(c1)OCO2)S(=O)(=O)c1ccc(N)cc1`, the Ki in test [1] was found to be 2.6 nM. The response in test [2] was half-maximal at 1400 nM (EC50).

In test [1], `CC(C)CCN([C@H](CO)CCCCNC(=O)N(Cc1ccc(F)cc1)Cc1ccc2c(c1)OCO2)S(=O)(=O)c1ccc(N)cc1` came in with a Ki of 4.9 nM. The EC50 in test [3] turned out to be 1200 nM.

Molecule `CC(C)CCN([C@H](CO)CCCCNC(=O)N(Cc1ccc2c(c1)OCO2)Cc1cccs1)S(=O)(=O)c1ccc(N)cc1` gave a Ki in test [1] of 1.4 nM. The same molecule displayed an EC50 in test [3] of 800 nM.

`CC(C)CN([C@H](CO)CCCCNC(=O)N(Cc1ccc(F)cc1)Cc1ccc2c(c1)OCO2)S(=O)(=O)c1ccc(N)cc1`: the Ki in test [1] amounted to 2 nM. This molecule also yielded an EC50 in test [2] of 488 nM.

For the molecule `COc1ccc(CN(Cc2ccc3c(c2)OCO3)C(=O)NCCCC[C@@H](CO)N(CCC(C)C)S(=O)(=O)c2ccc(N)cc2)cc1OC`, the Ki in test [1] was 3 nM.

The molecule `COc1cccc(CN(Cc2ccc3c(c2)OCO3)C(=O)NCCCC[C@@H](CO)N(CCC(C)C)S(=O)(=O)c2ccc(N)cc2)c1` registered a Ki in test [1] of 2.2 nM. The Ki values of the last two molecules are within 1.5-fold of each other.

As to `CC(C)CCN([C@H](CO)CCCCNC(=O)N(Cc1ccc(F)cc1)Cc1ccc2c(c1)OCCO2)S(=O)(=O)c1ccc(N)cc1`, the Ki in test [1] came to 5.4 nM.

`COc1cccc(CN(Cc2ccc3c(c2)OCO3)C(=S)NCCCC[C@@H](CO)N(CCC(C)C)S(=O)(=O)c2ccc(N)cc2)c1` registered a Ki in test [1] of 2.6 nM.

For the molecule `CC(C)CN([C@H](CO)CCCCNC(=O)N(Cc1ccsc1)Cc1ccc2c(c1)OCO2)S(=O)(=O)c1ccc(N)cc1`, the affinity in test [1] corresponds to a Ki of 6.3 nM. In addition, the EC50 in test [2] is 5000 nM.

For the molecule `CC(C)CN([C@H](CO)CCCCNC(=O)N(Cc1ccccc1)Cc1ccc(F)cc1F)S(=O)(=O)c1ccc(N)cc1`, the Ki in test [1] was 12 nM. The same molecule came in with an EC50 in test [2] of 3200 nM.

As to `CC(C)CN([C@H](CO)CCCCNC(=O)N(Cc1ccccc1)Cc1cccs1)S(=O)(=O)c1ccc(N)cc1`, affinity in test [1] was put at a Ki of 11 nM. This molecule also returned an EC50 in test [2] of 5000 nM.

Molecule `CC(C)CN([C@H](CO)CCCCNC(=O)N(Cc1ccc(C(F)(F)F)cc1)Cc1ccc2c(c1)OCO2)S(=O)(=O)c1ccc(N)cc1` had a Ki in test [1] of 2.5 nM. The EC50 in test [2] is 1600 nM.

`CC(C)CCN([C@H](CO)CCCCNC(=O)N(Cc1ccccc1)Cc1ccc2c(c1)OCO2)S(=O)(=O)c1ccc(N)cc1`: the Ki in test [1] is 4.1 nM. This molecule also had an EC50 in test [3] of 871 nM.

With `COc1ccc(CN(Cc2ccc3c(c2)OCO3)C(=S)NCCCC[C@@H](CO)N(CCC(C)C)S(=O)(=O)c2ccc(N)cc2)cc1`, the Ki in test [1] worked out at 3.6 nM.

In test [1], `COc1ccc(CN(Cc2ccc3c(c2)OCO3)C(=S)NCCCC[C@@H](CO)N(CCC(C)C)S(=O)(=O)c2ccc(N)cc2)cc1OC` registered a Ki of 2.9 nM.

In turn, `CC(C)CN([C@H](CO)CCCCNC(=O)N(Cc1ccc([N+](=O)[O-])cc1)Cc1ccc2c(c1)OCO2)S(=O)(=O)c1ccc(N)cc1` registered a Ki in test [1] of 2 nM. Also, in test [2], the response was half-maximal at 620 nM (EC50).

In turn, `CC(C)CCN([C@H](CO)CCCCNC(=O)N(Cc1ccccc1)Cc1cccc2c1OCO2)S(=O)(=O)c1ccc(N)cc1` displayed a Ki in test [1] of 4 nM. The EC50 in test [3] was > 10000 nM.

On to `Cc1ccc(S(=O)(=O)N(CC(C)C)[C@@H](CCCCNC(=O)N(Cc2ccccc2)C(C)C)C(=O)O)cc1`, for which, in test [1], the Ki turned out to be 19 nM. In other words, the double-digit nanomolar range.

`CC(C)CN([C@H](CO)CCCCNC(=O)N(Cc1ccccc1)Cc1ccc(F)cc1)S(=O)(=O)c1ccc(N)cc1` had a Ki in test [1] of 3.3 nM. For the same molecule, the EC50 in test [2] was > 10000 nM.

Turning to `CC(C)CN([C@H](CO)CCCCNC(=O)N(Cc1ccccc1)Cc1cccnc1)S(=O)(=O)c1ccc(N)cc1`, the affinity in test [1], expressed as Ki, was 34 nM. The molecule further had an EC50 in test [2] of 8500 nM.

`CC(C)CN([C@H](CO)CCCCNC(=O)N(Cc1ccccc1)Cc1ccncc1)S(=O)(=O)c1ccc(N)cc1` displayed a Ki in test [1] of 90 nM. Also, the EC50 in test [2] was > 10000 nM.

On to `Cc1ccc(S(=O)(=O)N(CC(C)C)[C@@H](CCCCNC(=O)N(C(C)C)C(C)C)C(=O)O)cc1`, for which the affinity in test [1], expressed as Ki, was 300 nM. In other words, the sub-micromolar range.

These data come from ChEMBL document CHEMBL1137124, “Lysine sulfonamides as novel HIV-protease inhibitors: Nepsilon-disubstituted ureas” (Bioorg Med Chem Lett, 2004).
